From US20170042193A1, “Pet Food Compositions Having Antimicrobial Activity” (priority 2010, published 2017)
Where two headings read alike, the source gives them in different places.

Experiments:
Format in all cases: cell-based
[1] = tested on: Salmonella (S. aarhus, S. muenster E1 & S. worthington)
Description: This test is typically used for antibiotic sensitivity in bacteria and was adapted to measure Salmonella growth suppression by ingredients with potential antimicrobial (AMI) activity. Discs of filter paper, approximately 5 mm in diameter, were soaked in an AMI at 1%, 2%, and 3%, except for oregano, which was soaked at 0.1%, 0.2% and 0.4% solution and placed on a Petri dish with standard methods agar with tetraphenyltetrazolium (TTC) that has been smeared with a standardized suspension of Salmonella (S. aarhus, S. muenster E1 & S. worthington). Efficacy of the AMI was validated by measuring how closely the Salmonella cultures grew with respect to the saturated filter paper.
Ingredients were screened for antimicrobial activity using the Disc Diffusion Test. Solutions of 1%, 2%, and 3% were prepared for each of these ingredients, except for oregano, which was prepared at 0.1%, 0.2%, and 0.4%. Soaking of the disks, placing them on a Standard Methods agar plate with TTC smeared with Salmonella and overnight incubation were done as discussed above. Efficacy of these ingredients was determined by measuring the clear zones (mm) around the disks (Table 2).

[2] = tested on: Salmonella (S. aarhus, S. muenster E1 & S. worthington); conditions: for inhibition of Salmonella, clear zone around the kibbles: coated kibbles, overnight at 30° C.; for Zone of Inhibition-Diameter, Mean / Zone of Inhibition-Diameter, REP I Plate 1 / Zone of Inhibition-Diameter, REP I Plate 2 / Zone of Inhibition-Diameter, REP II Plate 1 / Zone of Inhibition-Diameter, REP II Plate 2 / Zone of Inhibition-Diameter, REP III Plate 1 / Zone of Inhibition-Diameter, REP III Plate 2: kibble coated
Procedure: The kibble diffusion test has similar principles as the disk diffusion method. […] […] Efficacy of the AMI was validated by measuring how closely the Salmonella cultures grew with respect to the saturated kibbles.
Commercial canine and feline adult pet food compositions in the form of kibbles were coated with potential AMIs. […] After incubation overnight at 30° C., plates were analyzed for presence of clear zones around the kibbles.

[3] = tested on: Salmonella (S. aarhus, S. muenster E1 and S. worthington); design: key to Salmonella growth or inhibition (MIC test): −: negative sign means inhibition; +: positive sign denotes growth
Procedure: The minimum inhibitory concentration (MIC) of an antimicrobial ingredient is defined as the maximum dilution of the product that will still inhibit the growth of Salmonella. Serial dilutions (0-3%, except for oregano 0-0.3%) were made of the AMI in bacterial growth media and poured in test tubes. The test organisms (S. aarhus, S. muenster E1 and S. worthington) were then added to the dilutions of the AMI ingredients to a final concentration of 10^6 or 10^3 cfu/g, incubated overnight at 30° C., and scored for growth by turbidity or plate counts.
Minimum Inhibitory Concentration was conducted for 10^3 and 10^6 cfu/g Salmonella. Results reported as negative sign means inhibition, while positive sign denotes growth.

Salmonella = experiment: Scale up challenge testing of canine kibble with Propionic Acid at simulated process steps
Description: Canine adult pet food compositions with Propionic Acid were produced. Samples were taken to simulate different steps of the process. […] Moisture target was about 20%. 2) The dryer temperature was reduced and belt speed increased. […] Moisture target was about 15%. […] Moisture target was about 8%.
Kibble with intermediate moisture (15% and 20%) was cooled to prevent condensation in the bag and not encourage mold growth.
Extruder, dryer, uncoated base and finished product samples (10 kg each) were inoculated with Salmonella 10^6 cfu/g.
Uncoated base samples were coated with topicals (palatants and fat) after inoculation (Table 10).
Samples were split and incubated in a 30, 50 or 70° C. incubator.
Samples at 70° C. were plated after 0, 15, 30 and 60 minutes.
Samples at 50° C. were plated after 0, 30, 60 and 240 minutes.
Samples at 30° C. were plated after 0, 1, 2, 3, 8 and 15 days.

[4] = 10^3 cfu/g Salmonella, antimicrobial level 0.03%
[5] = 10^3 cfu/g Salmonella, antimicrobial level 0.15%
[6] = 10^3 cfu/g Salmonella, antimicrobial level 0.3%
[7] = 10^3 cfu/g Salmonella, antimicrobial level 0.9%
[8] = 10^3 cfu/g Salmonella, antimicrobial level 1.5%
[9] = 10^3 cfu/g Salmonella, antimicrobial level 2.1%
[10] = 10^3 cfu/g Salmonella, antimicrobial level 3%
[11] = 10^3 cfu/g Salmonella, antimicrobial level […]
[12] = 10^6 cfu/g Salmonella, antimicrobial level 0.03%
[13] = 10^6 cfu/g Salmonella, antimicrobial level 0.15%
[14] = 10^6 cfu/g Salmonella, antimicrobial level 0.3%
[15] = 10^6 cfu/g Salmonella, antimicrobial level 0.9%
[16] = 10^6 cfu/g Salmonella, antimicrobial level 1.5%
[17] = 10^6 cfu/g Salmonella, antimicrobial level 2.1%
[18] = 10^6 cfu/g Salmonella, antimicrobial level 3%
[19] = 10^6 cfu/g Salmonella, antimicrobial level […]

O=P(O)(O)O [Inorganic Acid (Phosphoric acid), Phosphoric Acid]
clear zone around disk, Partial ([1]; R 1 (*3 replicates)): 9.33 mm
clear zone around disk, Total ([1]; R 1 (*3 replicates)): 16.67 mm
clear zone around disk, Partial ([1]; R 2): 14.33 mm
clear zone around disk, Total ([1]; R 2): 24.0 mm
clear zone around disk, Partial ([1]; R 3): 21.0 mm
clear zone around disk, Total ([1]; R 3): 28.33 mm
Antimicrobial activity against Salmonella, decreasing order ([1]; order printed: Phosphoric acid>Phenols, pH 4.25-4.85>Oleoresin Oregano>92% Sodium Lactate and 6% Sodium Diacetate>Phenols, pH 4.8-6.0): Antimicrobial activity against Salmonella was observed
inhibition of Salmonella, clear zone around the kibbles [2]: inhibited Salmonella
Zone of Inhibition-Diameter, Mean ([2]; 3%): 8 mm
Zone of Inhibition-Diameter, REP I Plate 1 ([2]; 3%): 9 mm
Zone of Inhibition-Diameter, REP I Plate 2 ([2]; 3%): 7 mm
Zone of Inhibition-Diameter, REP II Plate 1 ([2]; 3%): 7 mm
Zone of Inhibition-Diameter, REP II Plate 2 ([2]; 3%): 9 mm
Zone of Inhibition-Diameter, REP III Plate 1 ([2]; 3%): 9 mm
Zone of Inhibition-Diameter, REP III Plate 2 ([2]; 3%): 7 mm
Salmonella growth or inhibition (MIC test) [3, 4]: +
Salmonella growth or inhibition (MIC test) [3, 5]: +
Salmonella growth or inhibition (MIC test) [3, 6]: +
Salmonella growth or inhibition (MIC test) [3, 7]: −
Salmonella growth or inhibition (MIC test) [3, 8]: −
Salmonella growth or inhibition (MIC test) [3, 9]: −
Salmonella growth or inhibition (MIC test) [3, 10]: −
Salmonella growth or inhibition (MIC test) [3, 11]: −
Salmonella growth or inhibition (MIC test) [3, 12]: +
Salmonella growth or inhibition (MIC test) [3, 13]: +
Salmonella growth or inhibition (MIC test) [3, 14]: +
Salmonella growth or inhibition (MIC test) [3, 15]: −
Salmonella growth or inhibition (MIC test) [3, 16]: −
Salmonella growth or inhibition (MIC test) [3, 17]: −
Salmonella growth or inhibition (MIC test) [3, 18]: −
Salmonella growth or inhibition (MIC test) [3, 19]: −

CCC(=O)O [Propionic Acid]
inhibition of Salmonella, clear zone around the kibbles [2]: inhibited Salmonella
Zone of Inhibition-Diameter, Mean ([2]; 0.65%): 9 mm
Zone of Inhibition-Diameter, REP I Plate 1 ([2]; 0.65%): 8 mm
Zone of Inhibition-Diameter, REP I Plate 2 ([2]; 0.65%): 10 mm
Zone of Inhibition-Diameter, REP II Plate 1 ([2]; 0.65%): 5 mm
Zone of Inhibition-Diameter, REP II Plate 2 ([2]; 0.65%): 10 mm
Zone of Inhibition-Diameter, REP III Plate 1 ([2]; 0.65%): 13 mm
Zone of Inhibition-Diameter, REP III Plate 2 ([2]; 0.65%): 5 mm
Zone of Inhibition-Diameter, Mean ([2]; 2%): 40 mm
Zone of Inhibition-Diameter, REP I Plate 1 ([2]; 2%): 47 mm
Zone of Inhibition-Diameter, REP I Plate 2 ([2]; 2%): 49 mm
Zone of Inhibition-Diameter, REP II Plate 1 ([2]; 2%): 47 mm
Zone of Inhibition-Diameter, REP II Plate 2 ([2]; 2%): 43 mm
Zone of Inhibition-Diameter, REP III Plate 1 ([2]; 2%): 30 mm
Zone of Inhibition-Diameter, REP III Plate 2 ([2]; 2%): 25 mm
Zone of Inhibition-Diameter, Mean ([2]; 3%): 31 mm
Zone of Inhibition-Diameter, REP I Plate 1 ([2]; 3%): 30 mm
Zone of Inhibition-Diameter, REP I Plate 2 ([2]; 3%): 28 mm
Zone of Inhibition-Diameter, REP II Plate 1 ([2]; 3%): 31 mm
Zone of Inhibition-Diameter, REP II Plate 2 ([2]; 3%): 34 mm
Zone of Inhibition-Diameter, REP III Plate 1 ([2]; 3%): 33 mm
Zone of Inhibition-Diameter, REP III Plate 2 ([2]; 3%): 30 mm
Zone of Inhibition-Diameter, Mean ([2]; 3% (in CWG)): 31 mm
Zone of Inhibition-Diameter, REP I Plate 1 ([2]; 3% (in CWG)): 34 mm
Zone of Inhibition-Diameter, REP I Plate 2 ([2]; 3% (in CWG)): 34 mm
Zone of Inhibition-Diameter, REP II Plate 1 ([2]; 3% (in CWG)): 28 mm
Zone of Inhibition-Diameter, REP II Plate 2 ([2]; 3% (in CWG)): 31 mm
Zone of Inhibition-Diameter, REP III Plate 1 ([2]; 3% (in CWG)): 28 mm
Zone of Inhibition-Diameter, REP III Plate 2 ([2]; 3% (in CWG)): 31 mm
Zone of Inhibition-Diameter, Mean ([2]; […]): 21 mm
Zone of Inhibition-Diameter, REP I Plate 1 ([2]; […]): 25 mm
Zone of Inhibition-Diameter, REP I Plate 2 ([2]; […]): 18 mm
Zone of Inhibition-Diameter, REP II Plate 1 ([2]; […]): 25 mm
Zone of Inhibition-Diameter, REP II Plate 2 ([2]; […]): 25 mm
Zone of Inhibition-Diameter, REP III Plate 1 ([2]; […]): 13 mm
Zone of Inhibition-Diameter, REP III Plate 2 ([2]; […]): 20 mm
Salmonella growth or inhibition (MIC test) [3, 4]: +
Salmonella growth or inhibition (MIC test) [3, 5]: +
Salmonella growth or inhibition (MIC test) [3, 6]: +
Salmonella growth or inhibition (MIC test) [3, 7]: −
Salmonella growth or inhibition (MIC test) [3, 8]: −
Salmonella growth or inhibition (MIC test) [3, 9]: −
Salmonella growth or inhibition (MIC test) [3, 10]: −
Salmonella growth or inhibition (MIC test) [3, 11]: −
Salmonella growth or inhibition (MIC test) [3, 12]: +
Salmonella growth or inhibition (MIC test) [3, 13]: +
Salmonella growth or inhibition (MIC test) [3, 14]: −
Salmonella growth or inhibition (MIC test) [3, 15]: −
Salmonella growth or inhibition (MIC test) [3, 16]: −
Salmonella growth or inhibition (MIC test) [3, 17]: −
Salmonella growth or inhibition (MIC test) [3, 18]: −
Salmonella growth or inhibition (MIC test) [3, 19]: −
reduction of Salmonella compared with untreated control (Salmonella; 1, 2 and 3% topically applied): reduced Salmonella by two log cycles more than an untreated control
reduction of Salmonella compared with untreated control (Salmonella; 2 and 3% topical/preconditioner): reduced Salmonella by two log cycles more than an untreated control
reduction of Salmonella compared with untreated control (Salmonella; 3% in preconditioner): reduced Salmonella by two log cycles more than an untreated control
efficacy against Salmonella at points of processing (Salmonella; concentrations of 1%, 2%, and 3%): efficacious against Salmonella at all points of processing
effect on Salmonella (Salmonella; finished product contaminated after enrober, 2% and 3% added topical/preconditioner): positive effect
effect on Salmonella (Salmonella; finished product contaminated after enrober, topical application of 1%, 2% and 3%): positive effect
effect on Salmonella (Salmonella; product coated and inoculated (finished product contaminated after enrober), 3% in the preconditioner): some immediate effect
reduction of Salmonella compared with control (Salmonella; product simulating entry to the airlift, evaporative cooling, dryer after surface cooling, 1%, 2%, and 3%): Reduction of two logs more than control
